Broadly, the EC50 is the concentration giving half of the maximal effect.

This note sets out measurements from patent US11780901B2, “Analogues of parathyroid hormone (1-34) that function as agonists of the parathyroid hormone receptor-1 and display modified activity profiles” (Wisconsin Alumni Research Foundation, priority 2013, dated 2023).

For one experiment, the target named is T1, PTHR1 (Homo sapiens, UniProt Q03431).
T1 sequence (Q03431 27-593): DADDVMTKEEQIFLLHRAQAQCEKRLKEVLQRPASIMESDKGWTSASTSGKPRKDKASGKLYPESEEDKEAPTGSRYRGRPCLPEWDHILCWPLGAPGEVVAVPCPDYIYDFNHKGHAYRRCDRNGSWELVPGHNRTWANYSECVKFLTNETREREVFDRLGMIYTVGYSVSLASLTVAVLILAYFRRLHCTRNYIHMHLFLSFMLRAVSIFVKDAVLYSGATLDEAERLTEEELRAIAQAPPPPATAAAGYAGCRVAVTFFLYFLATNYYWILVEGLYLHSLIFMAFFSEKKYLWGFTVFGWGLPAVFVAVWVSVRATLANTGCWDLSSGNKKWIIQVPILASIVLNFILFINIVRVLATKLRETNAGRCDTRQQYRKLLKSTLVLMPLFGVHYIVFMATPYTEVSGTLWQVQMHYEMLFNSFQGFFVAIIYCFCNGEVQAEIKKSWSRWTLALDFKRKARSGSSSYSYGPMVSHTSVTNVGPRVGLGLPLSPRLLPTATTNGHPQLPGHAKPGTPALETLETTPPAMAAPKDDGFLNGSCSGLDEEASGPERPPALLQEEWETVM
The experiment is described as follows: PTHR1 activation, cAMP production (GloSensor) in HEK293 cells. The format is cell-based. The arrangement: expressed in transfected cells. The following applies: for PTHR1 Activation: Derivative EC50/PTH EC50: normalized to EC50 of PTH(1-34)-NH2 ([…]), cAMP production. The text has this:
The assays employ HEK-293 cells that have been engineered to express the appropriate receptor. GloSensor-based detection of cAMP provides a read-out of receptor activation.
For PTHR1 activation and all the binding data, data represent mean±s.e.m from three independent measurements; For PTHR2 activation, data represent mean±s.e.m from four independent measurements. Curves were fit to the data using a four-parameter sigmoidal dose-response equation.
For cAMP dose-response assays, monolayers of confluent HEK 293 cells were pre-incubated with buffer containing d-luciferin (0.5 mM) in 96 well plates at room temperature until a stable baseline level of luminescence was established (30 min). Varying concentrations of agonist were then added, and the time course of luminescence response was recorded using a Perkin Elmer plate reader following α/β-peptide addition.
On the technique in general: Changes in cAMP serve as a functional read-out for many G protein-coupled receptors.

Another experiment addresses PTHR2 (Homo sapiens, UniProt P49190). The experiment is described as follows: PTHR2 activation, cAMP production (GloSensor) in HEK293 cells. The class given is cell-based. The arrangement: expressed in transfected cells; key to PTHR2 Activation: Derivative EC50/PTH EC50: *** denotes poor tolerance of β amino acid for PTHR2 activation. The following applies: for EC50: HEK-293 cells, GloSensor cAMP, read-out: EC50 (nM) of PTHR2 Activation; for PTHR2 Activation: Derivative EC50/PTH EC50: normalized to EC50 of PTH(1-34)-NH2 ([…] printed), cAMP production. From the text: The assays employ HEK-293 cells that have been engineered to express the appropriate receptor. GloSensor-based detection of cAMP provides a read-out of receptor activation. […] (Carter, P. H. et al. Actions of the Small Molecule Ligands SW106 and AH-3960 on the Type-1 Parathyroid Hormone Receptor. Molecular Endocrinology 29, 307-321 (2015).)
FIGS. 10A and 10B depict dose-response curves of PTHR1 activation (FIG. 10A) and PTHR2 activation (FIG. 10B) in HEK293 cells stably expressing PTHR1 or PTHR2. For PTHR1 activation and all the binding data, data represent mean±s.e.m from three independent measurements; For PTHR2 activation, data represent mean±s.e.m from four independent measurements. Curves were fit to the data using a four-parameter sigmoidal dose-response equation.

Where [1] appears, read: HEK-293 cells, GloSensor cAMP, read-out: EC50 (nM) of PTHR1 Activation.
Where [2] appears, read: Table 8, hPTHR1, read-out: PTHR1 EC50.

Read-outs that look alike come from different tables or passages of the source. Starred links: 1 amine or outer side, 2 acyl side, 3 side chain; linkers in the order of their positions; H or OH if unused. Non-standard residues stand in square brackets, D forms with d. Residues, ends and D or L forms follow the SMILES beside them. *: point of attachment. X10 = NC(=O)CC[C@H](CN[*:1])C(=O)[*:2]; X4 = O=C(O)CC[C@@H](CN[*:1])C(=O)[*:2]; X11 = NC[C@H](CO)C(=O)*

Sequence of PTHR2 (P49190 25-550): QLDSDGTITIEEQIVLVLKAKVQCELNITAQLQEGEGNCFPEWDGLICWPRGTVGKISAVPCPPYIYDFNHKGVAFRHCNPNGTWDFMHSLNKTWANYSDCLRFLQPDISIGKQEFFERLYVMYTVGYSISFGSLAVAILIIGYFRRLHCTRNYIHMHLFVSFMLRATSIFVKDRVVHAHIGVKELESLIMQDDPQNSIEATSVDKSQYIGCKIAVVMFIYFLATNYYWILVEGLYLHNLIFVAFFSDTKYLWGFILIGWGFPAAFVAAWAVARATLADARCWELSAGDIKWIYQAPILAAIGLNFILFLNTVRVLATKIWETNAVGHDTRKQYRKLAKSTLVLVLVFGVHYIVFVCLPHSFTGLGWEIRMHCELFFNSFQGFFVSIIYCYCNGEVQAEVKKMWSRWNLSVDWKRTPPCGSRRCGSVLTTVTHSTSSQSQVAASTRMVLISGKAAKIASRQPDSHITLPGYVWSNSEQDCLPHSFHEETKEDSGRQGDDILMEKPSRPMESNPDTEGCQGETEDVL

With `CC[C@H](C)[C@H](NC(=O)[C@H](CCC(=O)O)NC(=O)[C@H](CO)NC(=O)[C@@H](NC(=O)[C@@H](N)CO)C(C)C)C(=O)N[C@@H](CCC(N)=O)C(=O)N[C@@H](CC(C)C)C(=O)N[C@@H](CCSC)CC(=O)N[C@@H](Cc1cnc[nH]1)C(=O)N[C@@H](CC(N)=O)C(=O)N[C@@H](CC(C)C)C(=O)NCC(=O)N[C@@H](CCCCN)C(=O)N[C@@H](Cc1cnc[nH]1)C(=O)N[C@@H](CC(C)C)C(=O)N[C@@H](CC(N)=O)C(=O)N[C@@H](CO)C(=O)N[C@@H](CCSC)C(=O)N[C@@H](CCC(=O)O)C(=O)N[C@@H](CCCNC(=N)N)C(=O)N[C@H](C(=O)N[C@@H](CCC(=O)O)C(=O)N[C@@H](Cc1c[nH]c2ccccc12)C(=O)N[C@@H](CC(C)C)C(=O)N[C@@H](CCCNC(=N)N)C(=O)N[C@@H](CCCCN)C(=O)N[C@@H](CCCCN)C(=O)N[C@@H](CC(C)C)C(=O)N[C@@H](CCC(N)=O)C(=O)N[C@@H](CC(=O)O)C(=O)N[C@H](C(=O)N[C@@H](Cc1cnc[nH]1)C(=O)N[C@@H](CC(N)=O)C(=O)N[C@@H](Cc1ccccc1)C(N)=O)C(C)C)C(C)C` [SEQ. ID. NO: 45], the figures for the EC50 on PTHR1 (setting [1]) and at PTHR2 were 21 ± 2.3 nM and greater than 100 nM, respectively.
Consider `CC[C@H](C)[C@H](NC(=O)[C@H](CCC(=O)O)NC(=O)[C@H](CO)NC(=O)[C@@H](NC(=O)[C@@H](N)CO)C(C)C)C(=O)NC[C@@H](CCC(N)=O)C(=O)N[C@@H](CC(C)C)C(=O)N[C@@H](CCSC)C(=O)N[C@@H](Cc1c[nH]cn1)C(=O)N[C@@H](CC(N)=O)C(=O)N[C@@H](CC(C)C)C(=O)NCC(=O)N[C@@H](CCCCN)C(=O)N[C@@H](Cc1c[nH]cn1)C(=O)N[C@@H](CC(C)C)C(=O)N[C@@H](CC(N)=O)C(=O)N[C@@H](CO)C(=O)N[C@@H](CCSC)C(=O)N[C@@H](CCC(=O)O)C(=O)N[C@@H](CCCNC(=N)N)C(=O)N[C@H](C(=O)N[C@@H](CCC(=O)O)C(=O)N[C@@H](Cc1c[nH]c2ccccc12)C(=O)N[C@@H](CC(C)C)C(=O)N[C@@H](CCCNC(=N)N)C(=O)N[C@@H](CCCCN)C(=O)N[C@@H](CCCCN)C(=O)N[C@@H](CC(C)C)C(=O)N[C@@H](CCC(N)=O)C(=O)N[C@@H](CC(=O)O)C(=O)N[C@H](C(=O)N[C@@H](Cc1c[nH]cn1)C(=O)N[C@@H](CC(N)=O)C(=O)N[C@@H](Cc1ccccc1)C(N)=O)C(C)C)C(C)C` [SEQ. ID. NO: 27] (H-SVSEI[X10]LMHNLGKHLNSMERVEWLRKKLQDVHNF-NH2; N-terminus assumed), for which the EC50 at PTHR1 (setting [1]) was 7.83 ± 0.4 nM. Moreover, at PTHR1, the “PTHR1 Activation: Derivative EC50/PTH EC50” value came out at 20.61. Besides, at PTHR2, the EC50 turned out to be 51.9 ± 8.82 nM and the “PTHR2 Activation: Derivative EC50/PTH EC50” value is given as 59.70.
For the compound `CC[C@H](C)[C@H](NC(=O)C[C@H](CCC(=O)O)NC(=O)[C@H](CO)NC(=O)[C@@H](NC(=O)[C@@H](N)CO)C(C)C)C(=O)N[C@@H](CCC(N)=O)C(=O)N[C@@H](CC(C)C)C(=O)N[C@@H](CCSC)C(=O)N[C@@H](Cc1c[nH]cn1)C(=O)N[C@@H](CC(N)=O)C(=O)N[C@@H](CC(C)C)C(=O)NCC(=O)N[C@@H](CCCCN)C(=O)N[C@@H](Cc1c[nH]cn1)C(=O)N[C@@H](CC(C)C)C(=O)N[C@@H](CC(N)=O)C(=O)N[C@@H](CO)C(=O)N[C@@H](CCSC)C(=O)N[C@@H](CCC(=O)O)C(=O)N[C@@H](CCCNC(=N)N)C(=O)N[C@H](C(=O)N[C@@H](CCC(=O)O)C(=O)N[C@@H](Cc1c[nH]c2ccccc12)C(=O)N[C@@H](CC(C)C)C(=O)N[C@@H](CCCNC(=N)N)C(=O)N[C@@H](CCCCN)C(=O)N[C@@H](CCCCN)C(=O)N[C@@H](CC(C)C)C(=O)N[C@@H](CCC(N)=O)C(=O)N[C@@H](CC(=O)O)C(=O)N[C@H](C(=O)N[C@@H](Cc1c[nH]cn1)C(=O)N[C@@H](CC(N)=O)C(=O)N[C@@H](Cc1ccccc1)C(N)=O)C(C)C)C(C)C` [SEQ. ID. NO: 41], the EC50 on PTHR2 came to 60.1 ± 9.82 nM.
Regarding `CC[C@H](C)[C@H](NC(=O)[C@@H](CCC(=O)O)CNC(=O)[C@H](CO)NC(=O)[C@@H](NC(=O)[C@@H](N)CO)C(C)C)C(=O)N[C@@H](CCC(N)=O)C(=O)N[C@@H](CC(C)C)C(=O)N[C@@H](CCSC)C(=O)N[C@@H](Cc1c[nH]cn1)C(=O)N[C@@H](CC(N)=O)C(=O)N[C@@H](CC(C)C)C(=O)NCC(=O)N[C@@H](CCCCN)C(=O)N[C@@H](Cc1c[nH]cn1)C(=O)N[C@@H](CC(C)C)C(=O)N[C@@H](CC(N)=O)C(=O)N[C@@H](CO)C(=O)N[C@@H](CCSC)C(=O)N[C@@H](CCC(=O)O)C(=O)N[C@@H](CCCNC(=N)N)C(=O)N[C@H](C(=O)N[C@@H](CCC(=O)O)C(=O)N[C@@H](Cc1c[nH]c2ccccc12)C(=O)N[C@@H](CC(C)C)C(=O)N[C@@H](CCCNC(=N)N)C(=O)N[C@@H](CCCCN)C(=O)N[C@@H](CCCCN)C(=O)N[C@@H](CC(C)C)C(=O)N[C@@H](CCC(N)=O)C(=O)N[C@@H](CC(=O)O)C(=O)N[C@H](C(=O)N[C@@H](Cc1c[nH]cn1)C(=O)N[C@@H](CC(N)=O)C(=O)N[C@@H](Cc1ccccc1)C(N)=O)C(C)C)C(C)C` [SEQ. ID. NO: 33] (H-SVS[X4]IQLMHNLGKHLNSMERVEWLRKKLQDVHNF-NH2; N-terminus assumed), the EC50 at PTHR1 (setting [1]) was 10.8 ± 0.47 nM; on PTHR1 (setting [2]) it was greater than 100 nM; on PTHR2, greater than 100 nM. In addition, on PTHR1, the “PTHR1 Activation: Derivative EC50/PTH EC50” value is 28.42. Moreover, at PTHR2, the “PTHR2 Activation: Derivative EC50/PTH EC50” value is on record as “***”.
For the compound `CC[C@H](C)[C@H](NC(=O)[C@H](CCC(=O)O)NC(=O)[C@H](CO)NC(=O)[C@@H](NC(=O)[C@H](CN)CO)C(C)C)C(=O)N[C@@H](CCC(N)=O)C(=O)N[C@@H](CC(C)C)C(=O)N[C@@H](CCSC)C(=O)N[C@@H](Cc1c[nH]cn1)C(=O)N[C@@H](CC(N)=O)C(=O)N[C@@H](CC(C)C)C(=O)NCC(=O)N[C@@H](CCCCN)C(=O)N[C@@H](Cc1c[nH]cn1)C(=O)N[C@@H](CC(C)C)C(=O)N[C@@H](CC(N)=O)C(=O)N[C@@H](CO)C(=O)N[C@@H](CCSC)C(=O)N[C@@H](CCC(=O)O)C(=O)N[C@@H](CCCNC(=N)N)C(=O)N[C@H](C(=O)N[C@@H](CCC(=O)O)C(=O)N[C@@H](Cc1c[nH]c2ccccc12)C(=O)N[C@@H](CC(C)C)C(=O)N[C@@H](CCCNC(=N)N)C(=O)N[C@@H](CCCCN)C(=O)N[C@@H](CCCCN)C(=O)N[C@@H](CC(C)C)C(=O)N[C@@H](CCC(N)=O)C(=O)N[C@@H](CC(=O)O)C(=O)N[C@H](C(=O)N[C@@H](Cc1c[nH]cn1)C(=O)N[C@@H](CC(N)=O)C(=O)N[C@@H](Cc1ccccc1)C(N)=O)C(C)C)C(C)C` [SEQ. ID. NO: 30] (X11-VSEIQLMHNLGKHLNSMERVEWLRKKLQDVHNF-NH2), at PTHR1 (setting [2]), the EC50 came to 1.55 ± 0.3 nM.
As to `CC[C@H](C)[C@@H](CC(=O)N[C@@H](CCC(N)=O)C(=O)N[C@@H](CC(C)C)C(=O)N[C@@H](CCSC)C(=O)N[C@@H](Cc1cnc[nH]1)C(=O)N[C@@H](CC(N)=O)C(=O)N[C@@H](CC(C)C)C(=O)NCC(=O)N[C@@H](CCCCN)C(=O)N[C@@H](Cc1cnc[nH]1)C(=O)N[C@@H](CC(C)C)C(=O)N[C@@H](CC(N)=O)C(=O)N[C@@H](CO)C(=O)N[C@@H](CCSC)C(=O)N[C@@H](CCC(=O)O)C(=O)N[C@@H](CCCNC(=N)N)C(=O)N[C@H](C(=O)N[C@@H](CCC(=O)O)C(=O)N[C@@H](Cc1c[nH]c2ccccc12)C(=O)N[C@@H](CC(C)C)C(=O)N[C@@H](CCCNC(=N)N)C(=O)N[C@@H](CCCCN)C(=O)N[C@@H](CCCCN)C(=O)N[C@@H](CC(C)C)C(=O)N[C@@H](CCC(N)=O)C(=O)N[C@@H](CC(=O)O)C(=O)N[C@H](C(=O)N[C@@H](Cc1cnc[nH]1)C(=O)N[C@@H](CC(N)=O)C(=O)N[C@@H](Cc1ccccc1)C(N)=O)C(C)C)C(C)C)NC(=O)[C@H](CCC(=O)O)NC(=O)[C@H](CO)NC(=O)[C@@H](NC(=O)[C@@H](N)CO)C(C)C` [SEQ. ID. NO: 42], the EC50 at PTHR1 (setting [1]) was found to be 3.4 ± 1.22 nM.
